# Reference: article PMC12855270, “Exceptionally selective voltage-sensor trapping of NaV1.5 channels by Mg-protoporphyrin impairs cancer cell migration” (Scientific Reports, 2026)
# Read-outs that look alike come from different tables or passages of the source.
# Legend:
# human NaV1.5 (hNaV1.5) [1] = biological target: T1, human NaV1.5 (hNaV1.5) (Homo sapiens, UniProt Q14524); conditions: for effect on hNaV1.5 current / remaining peak inward current: 1 µM extracellular, 5 min, -30 mV; for IC50: read-out: IC50 of hNaV1.5 current inhibition (Hill fit, constrained), current after 5 min, Hill coefficient constrained to 1 and remaining current to zero
# [2] = biological target: T2, human BKCa channel (KCa1.1, KCNMA1) (Homo sapiens, UniProt Q12791); assay: BKCa currents in inside-out patches (HEK293T); assay type: biochemical; conditions: 1 µM to intracellular side, 1 µM free Ca2+, 80 mV
# T2 construct: expressed in transfected cells; host or cells: HEK293T
# From the text: The coding sequence of human NaV1.5 (hNaV1.5, SCN5A, Acc. no. M77235) was inserted into pRC/CMV vector plasmids and expressed in HEK293T cells as described previously. The following NaV constructs were used in a similar manner: mNaV1.5 (mouse, AJ271477.1), hNaV1.2 (NM001040143), hNaV1.4 (AAO83647), hNaV1.7 (NP002968), and hNaV1.8 (Q9Y5Y9.2). The neonatal splice variant of hNaV1.5 (nhNaV1.5) was used as described by Schroeter et al.[45]. Recombinant DNAs for all NaV subgroups were engineered using PCR-based methods and verified by DNA sequencing. For the functional evaluation of BKCa channels (KCa1.1), we used human KCNMA1 (Acc. no. U11058).
# Cells were transfected with the channel-coding plasmids using ROTI®Fect (Carl Roth, Karlsruhe, Germany). Visualization of transfected cells was achieved by co-expressing green fluorescent protein or in the case of BKCa channels, CD8 + with subsequent use of anti-CD8 coated microbeads. Neuro-2A cells were utilized for the expression of hNaV1.8 channels; all other constructs were expressed in HEK293T cells. Ionic currents were recorded 1–2 days after transfection.
# Currents of BKCa channels were measured in inside-out patches after expression in HEK293T cells, using an EPC10 amplifier (HEKA Elektronik) and PACHMASTER NEXT acquisition software (Multi-Channel Systems GmbH, MCS, Reutlingen, Germany). The holding voltage was -90 mV, and currents were recorded for depolarization steps up to 80 mV. Pipettes with resistances of 1.8–2.5 MΩ were used. The extracellular (pipette) solution contained (in mM): 138 NaCl, 4 KCl, 2 CaCl2, 2 MgCl2, and 10 HEPES, pH 7.4 (NaOH); the intracellular (bath) solution with about 1 µM free Ca^2+ contained: 135 KCl, 8.63 CaCl2, 2 MgCl2, 10 EGTA, and 10 HEPES, pH 7.4 (KOH).
# All recordings were obtained at room temperature (20–23 °C). Metal protoporphyrins, diluted from stock solutions in DMSO, were applied by adding 1/3 of the final bath volume and mixing. Transmission and fluorescence light sources were turned off during data acquisition.
# MDA-MB-231 cells = assay: wound-healing assay, MDA-MB-231; assay type: cell-based, human; conditions: for gap closure (cell migration) in wound-healing assay: 100 nM, 4 h, 2% FBS, MDA-MB-231
# SW-480 cells = assay: wound-healing assay, SW-480; assay type: cell-based, human
# Protocol: (§1) Human embryonic kidney 293 T cells (HEK293T, from CAMR; Porton Down, Salisbury, UK) were cultured in Dulbecco’s Modified Eagle’s Medium (DMEM) with Nutrient Mixture F-12 (Gibco). Mouse neuroblastoma cells (Neuro-2A, German Collection of Microorganisms and Cell Cultures, DSMZ, Braunschweig, Germany) were cultured in DMEM. The breast cancer cell lines MDA-MB-231 (DSMZ) and T-47D (American Type Culture Collection, ATCC) were cultured in RPMI 1640 medium (Sigma, R7388), while the colorectal cancer cell lines SW-480 (DSMZ) and SW-48 (ATCC) were maintained in DMEM. Media were supplemented with 10% FBS, and the cells were incubated at 37 °C in a humidified atmosphere containing 5% or 10% (Neuro-2A) CO2.
# (§2) Cells (50,000 to 70,000 per well) were seeded in a 48-well plate (Greiner Bio-One, Frickenhausen, Germany) and cultured for one day in their respective culture media supplemented with 10% FBS. Upon achieving approximately 90% confluency, a 200 µl sterile pipette tip was used to create a linear scratch (wound) in each well. Subsequently, the cells were rinsed with phosphate-buffered saline (PBS) and the medium was replaced with the same formulation containing only 2% FBS to minimize cell proliferation and to emphasize cell migration. […] Images were analyzed with ImageJ (NIH, Bethesda, MD, USA) using the “wound_healing_size_tool_updated” plugin[46] to quantify wound areas.
# SW-48 cells = assay: wound-healing assay, SW-48; assay type: cell-based, human
# Protocol: as §1, §2
# [3] = biological target: endogenous NaV-channel current in MDA-MB-231 cells (Homo sapiens, UniProt Q14524); assay: whole-cell patch-clamp of endogenous NaV-channel current in MDA-MB-231 cells; assay type: cell-based
# human NaV1.5 (hNaV1.5) [4] = biological target: T1, human NaV1.5 (hNaV1.5); conditions: cited from earlier work
# [5] = system: xenografted NaV1.5-expressing human breast cancer cells; conditions: mouse xenograft model; cited from earlier work
# [6] = biological target: T2, human BKCa channel (KCa1.1, KCNMA1); conditions: applied to the intracellular side; cited from earlier work
# T1 sequence (Q14524 whole entry): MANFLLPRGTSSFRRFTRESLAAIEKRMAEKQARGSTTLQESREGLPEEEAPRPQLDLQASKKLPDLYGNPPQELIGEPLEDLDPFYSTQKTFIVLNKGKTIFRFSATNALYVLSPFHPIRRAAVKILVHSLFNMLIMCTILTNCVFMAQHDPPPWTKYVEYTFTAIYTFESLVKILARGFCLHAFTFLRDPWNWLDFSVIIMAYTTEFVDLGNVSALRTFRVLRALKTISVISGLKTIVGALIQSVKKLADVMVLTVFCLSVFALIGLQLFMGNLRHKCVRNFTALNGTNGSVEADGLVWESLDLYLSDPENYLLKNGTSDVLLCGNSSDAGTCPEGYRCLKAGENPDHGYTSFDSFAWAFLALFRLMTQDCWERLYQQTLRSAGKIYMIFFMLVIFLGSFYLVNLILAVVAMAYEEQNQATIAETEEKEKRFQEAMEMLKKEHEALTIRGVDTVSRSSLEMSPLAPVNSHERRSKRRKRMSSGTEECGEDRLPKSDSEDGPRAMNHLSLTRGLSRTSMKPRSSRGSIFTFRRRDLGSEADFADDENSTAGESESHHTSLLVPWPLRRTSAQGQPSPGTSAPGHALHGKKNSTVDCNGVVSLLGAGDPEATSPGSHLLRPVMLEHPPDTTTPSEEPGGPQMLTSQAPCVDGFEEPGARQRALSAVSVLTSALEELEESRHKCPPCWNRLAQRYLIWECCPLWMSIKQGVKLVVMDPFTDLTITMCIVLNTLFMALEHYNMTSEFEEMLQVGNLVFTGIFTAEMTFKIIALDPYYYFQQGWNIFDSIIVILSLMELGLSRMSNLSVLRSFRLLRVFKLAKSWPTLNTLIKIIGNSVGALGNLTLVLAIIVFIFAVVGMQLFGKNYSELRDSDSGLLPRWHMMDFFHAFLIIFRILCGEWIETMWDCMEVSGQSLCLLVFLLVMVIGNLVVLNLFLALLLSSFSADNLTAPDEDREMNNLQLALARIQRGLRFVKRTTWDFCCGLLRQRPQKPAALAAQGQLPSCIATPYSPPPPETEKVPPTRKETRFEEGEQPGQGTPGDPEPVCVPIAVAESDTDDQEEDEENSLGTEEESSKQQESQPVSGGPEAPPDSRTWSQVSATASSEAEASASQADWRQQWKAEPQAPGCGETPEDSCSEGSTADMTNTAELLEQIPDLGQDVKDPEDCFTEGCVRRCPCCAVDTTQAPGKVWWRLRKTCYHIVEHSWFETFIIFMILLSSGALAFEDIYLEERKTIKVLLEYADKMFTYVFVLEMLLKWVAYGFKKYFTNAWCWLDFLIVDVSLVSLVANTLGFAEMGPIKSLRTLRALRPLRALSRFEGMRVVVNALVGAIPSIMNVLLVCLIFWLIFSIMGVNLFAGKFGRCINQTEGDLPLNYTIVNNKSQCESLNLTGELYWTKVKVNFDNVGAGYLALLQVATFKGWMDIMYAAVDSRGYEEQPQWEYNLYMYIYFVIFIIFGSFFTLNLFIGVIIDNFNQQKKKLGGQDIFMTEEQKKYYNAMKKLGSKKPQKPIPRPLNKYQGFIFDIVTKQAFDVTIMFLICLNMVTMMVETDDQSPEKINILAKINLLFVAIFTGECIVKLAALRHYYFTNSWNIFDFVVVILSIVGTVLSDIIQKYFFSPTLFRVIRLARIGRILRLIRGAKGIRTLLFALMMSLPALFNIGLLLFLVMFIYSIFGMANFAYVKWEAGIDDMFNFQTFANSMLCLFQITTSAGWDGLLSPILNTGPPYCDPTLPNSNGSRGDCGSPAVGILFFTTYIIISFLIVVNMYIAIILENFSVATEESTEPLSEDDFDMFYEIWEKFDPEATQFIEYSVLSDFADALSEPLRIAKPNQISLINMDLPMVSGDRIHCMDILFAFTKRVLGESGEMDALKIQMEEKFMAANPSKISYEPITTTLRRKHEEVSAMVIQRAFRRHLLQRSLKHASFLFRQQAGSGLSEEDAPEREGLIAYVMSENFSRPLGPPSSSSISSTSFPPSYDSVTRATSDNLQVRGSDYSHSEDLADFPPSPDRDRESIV
# T2 sequence (Q12791 1-1178 isoform Q12791-5): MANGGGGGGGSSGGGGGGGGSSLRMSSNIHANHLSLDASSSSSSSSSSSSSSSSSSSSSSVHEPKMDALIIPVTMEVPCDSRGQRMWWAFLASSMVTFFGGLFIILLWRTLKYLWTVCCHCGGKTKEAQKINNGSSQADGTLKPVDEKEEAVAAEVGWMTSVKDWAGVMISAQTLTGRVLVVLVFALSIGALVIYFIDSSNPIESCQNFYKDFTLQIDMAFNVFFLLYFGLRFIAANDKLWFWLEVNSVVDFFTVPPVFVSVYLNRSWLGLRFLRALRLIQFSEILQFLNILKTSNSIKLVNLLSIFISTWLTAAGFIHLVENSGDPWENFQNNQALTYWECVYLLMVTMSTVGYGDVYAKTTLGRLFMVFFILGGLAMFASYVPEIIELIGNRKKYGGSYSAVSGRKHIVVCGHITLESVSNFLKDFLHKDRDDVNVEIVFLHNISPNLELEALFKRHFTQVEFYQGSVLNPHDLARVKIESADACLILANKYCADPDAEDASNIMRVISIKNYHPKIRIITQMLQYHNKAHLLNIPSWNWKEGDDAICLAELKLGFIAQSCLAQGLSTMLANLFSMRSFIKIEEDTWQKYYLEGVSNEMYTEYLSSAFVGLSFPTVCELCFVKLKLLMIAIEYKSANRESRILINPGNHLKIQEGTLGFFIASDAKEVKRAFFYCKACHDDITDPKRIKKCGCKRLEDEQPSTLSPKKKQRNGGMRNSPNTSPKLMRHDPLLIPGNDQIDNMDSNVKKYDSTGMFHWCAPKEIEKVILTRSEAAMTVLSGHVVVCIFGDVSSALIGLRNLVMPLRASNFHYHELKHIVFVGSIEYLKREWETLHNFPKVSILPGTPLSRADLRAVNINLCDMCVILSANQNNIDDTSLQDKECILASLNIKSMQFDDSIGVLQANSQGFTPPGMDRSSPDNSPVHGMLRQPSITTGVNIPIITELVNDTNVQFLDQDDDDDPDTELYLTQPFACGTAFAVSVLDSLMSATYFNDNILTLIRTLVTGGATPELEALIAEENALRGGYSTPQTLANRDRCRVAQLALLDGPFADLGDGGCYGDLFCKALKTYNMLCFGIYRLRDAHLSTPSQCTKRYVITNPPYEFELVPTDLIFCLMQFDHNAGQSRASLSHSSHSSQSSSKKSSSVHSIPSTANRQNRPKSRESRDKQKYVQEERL
# endogenous NaV-channel current in MDA-MB-231 cells, sequence (Q14524 711-950): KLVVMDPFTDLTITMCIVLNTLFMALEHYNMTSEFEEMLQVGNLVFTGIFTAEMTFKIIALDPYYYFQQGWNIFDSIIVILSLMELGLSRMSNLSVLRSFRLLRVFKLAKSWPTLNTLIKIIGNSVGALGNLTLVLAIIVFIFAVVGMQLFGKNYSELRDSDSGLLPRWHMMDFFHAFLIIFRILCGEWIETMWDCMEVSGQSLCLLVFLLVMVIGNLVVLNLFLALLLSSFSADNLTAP
molecule,measurement,setting,value
"C=Cc1c(C)c2cc3nc(c4c5[n-]c(cc6nc(cc1[n-]2)C(C)=C6CC)c(C)c5C(=O)[C@@H]4C(=O)OC)[C@@H](CCC(=O)OC/C=C(\C)CCC[C@H](C)CCC[C@H](C)CCCC(C)C)[C@@H]3C.[Mg+2] [Chlorophyll-A, reference compound]",effect on hNaV1.5 current,human NaV1.5 (hNaV1.5) [1],no detectable effect
"C=CC1=C(C)c2cc3[n-]c(cc4[n-]c(cc5nc(cc1n2)C(C)=C5C=C)c(C)c4CCC(=O)O)c(CCC(=O)O)c3C.[Cu+2] [CuPpIX, copper-PpIX]",effect on hNaV1.5 current,human NaV1.5 (hNaV1.5) [1],failed to affect the current
same,effect on hNaV1.5 current,human NaV1.5 (hNaV1.5) [1]; listed as Cu(II)PpIX,completely ineffective
"C=CC1=C(C)C2=Cc3c(C=C)c(C)c4[n]3[Ga][n]3c(c(C)c(CCC(=O)O)c3=CC3=NC(=C4)C(C)=C3CCC(=O)O)=CC1=N2 [GaPpIX, gallium-PpIX]",effect on BKCa current,[2],did not block BKCa channels
same,gap closure (cell migration) in wound-healing assay,MDA-MB-231 cells,"diminished gap closure, albeit less potently than MgPpIX"
same,remaining peak inward current,human NaV1.5 (hNaV1.5) [1],about 10%
same,IC50,human NaV1.5 (hNaV1.5) [1],117 ± 8 nM
"C=CC1=C(C)c2cc3[n-]c(cc4[n-]c(cc5nc(cc1n2)C(C)=C5C=C)c(C)c4CCC(=O)[O-])c(CCC(=O)[O-])c3C.[H+].[H+].[Mn+2] [MnPpIX, manganese-PpIX]",effect on hNaV1.5 current,human NaV1.5 (hNaV1.5) [1],slightly less potent than hemin
same,IC50,human NaV1.5 (hNaV1.5) [1],672 ± 18 nM
"C=CC1=C(C)c2cc3[n-]c(cc4[n-]c(cc5nc(cc1n2)C(C)=C5C=C)c(C)c4CCC(=O)[O-])c(CCC(=O)[O-])c3C.[H+].[H+].[Ni+2] [NiPpIX, nickel-PpIX]",effect on BKCa current,[2],did not block BKCa channels
same,gap closure (cell migration) in wound-healing assay,MDA-MB-231 cells,failed to influence gap closure
same,effect on hNaV1.5 current,human NaV1.5 (hNaV1.5) [1],failed to affect the current
same,effect on hNaV1.5 current,human NaV1.5 (hNaV1.5) [1]; listed as Ni(II)PpIX,completely ineffective
"C=CC1=C(C)c2cc3[nH]c(cc4nc(cc5[nH]c(cc1n2)c(C)c5CCC(=O)O)C(CCC(=O)O)=C4C)c(C)c3C=C [PpIX, Protoporphyrin IX, reference compound]",gap closure (cell migration) in wound-healing assay,MDA-MB-231 cells,failed to influence gap closure
same,cell migration in wound-healing assay,SW-480 cells,neither SnPpIX nor PpIX had any impact
same,cell migration in wound-healing assay,SW-48 cells,neither SnPpIX nor PpIX had any impact
"NC1=N[C@H](O)[C@H]2[C@H]3O[C@]4(O)O[C@@H]([C@@H](O)[C@@]2(N1)[C@@H]4O)[C@]3(O)CO [TTX, tetrodotoxin, reference compound]",gap closure in wound-healing assay,MDA-MB-231 cells,only a weak effect
same,remaining endogenous NaV-channel current,[3],3.5 ± 0.5%
"C=CC1=C(C)c2cc3[n-]c(cc4nc(cc5[n-]c(cc1n2)c(C)c5C=C)C(C)=C4CCC(=O)O)c(CCC(=O)O)c3C.[Zn+2] [ZnPpIX, zinc-PpIX]",effect on BKCa current,[2],minor effect
same,gap closure (cell migration) in wound-healing assay,MDA-MB-231 cells,"diminished gap closure, albeit less potently than MgPpIX"
same,remaining peak inward current,human NaV1.5 (hNaV1.5) [1],about 10%
same,IC50,human NaV1.5 (hNaV1.5) [1],106 ± 11 nM
"C=CC1=C(C)c2cc3[n-]c(cc4[n-]c(cc5nc(cc1n2)C(C)=C5C=C)c(C)c4CCC(=O)O)c(CCC(=O)O)c3C.[Fe+2] [heme, reference compound]",impact on hNaV1.5 channels,human NaV1.5 (hNaV1.5) [4],no impact
COc1ccccc1OCC(O)CN1CCN(CC(=O)Nc2c(C)cccc2C)CC1 (stereo not drawn) [ranolazine],lung colonization by the cancer cells,[5],reduced lung colonization by the cancer cells
same,tolerability,[5],well-tolerated
Fe^3+-protoporphyrin IX [hemin],gap closure (cell migration) in wound-healing assay,MDA-MB-231 cells,"diminished gap closure, albeit less potently than MgPpIX"
same,remaining peak inward current,human NaV1.5 (hNaV1.5) [1],~ 20%
same,"reestablishment of inhibition, times slower than MgPpIX","human NaV1.5 (hNaV1.5) [1]; hNaV1.5, after prepulse-induced reversal",about 8 times
same,IC50,human NaV1.5 (hNaV1.5) [1],231 ± 18 nM
same,effect on BKCa channel,[6],effectively inhibited
same,IC50,"human NaV1.5 (hNaV1.5) [4]; read-out: apparent half-inhibitory constant (IC50) for hNaV1.5-mediated Na+ current, extracellularly applied",~100 nM
tin-PpIX [SnPpIX],gap closure (cell migration) in wound-healing assay,MDA-MB-231 cells,failed to influence gap closure
same,cell migration in wound-healing assay,SW-480 cells,neither SnPpIX nor PpIX had any impact
same,cell migration in wound-healing assay,SW-48 cells,neither SnPpIX nor PpIX had any impact
same,effect on hNaV1.5 current,human NaV1.5 (hNaV1.5) [1],failed to affect the current
same,effect on hNaV1.5 current,human NaV1.5 (hNaV1.5) [1]; listed as Sn(IV)PpIX,completely ineffective
